The source of these data is patent publication US10494380B2, “Nitrogen-containing tricyclic derivatives having HIV replication inhibitory activity” (priority 2015, dated 2019).

Where two headings read alike, the source gives them in different places.

The subject of test [1] is T125A mutant virus (HIV-1 NL-432 recombinant molecular clone, IN gene). In words: HIV replication inhibition assay against integrase 124/125 mutant virus (Test Example 2). Type of test: cell-based. On the procedure:
Persistently HIV (HTLV-IIIB strain) infected human T cell strain Molt-4 clone8 was cultured in RPMI-1640 medium supplemented with 10% fetal bovine serum and the supernatant was filtered, then the virus titer was measured and stored at −80° C. Polymorphic mutations in HIV-1-infected patients have been observed in amino acids 124 and 125 on the HIV-1 integrase (IN) gene. A point mutation was introduced on the amino acids 124 and/or 125 of IN gene of the HIV-1 NL-432 recombinant molecular clone to generate a mutant virus plasmid construct. These mutant virus plasmids were transfected into 293T cells, and after two days, the supernatant was filtered and then the virus titer was measured and stored at −80° C. Each anti-HIV active substance was diluted with culture medium described above to the designated concentration, which was dispensed into 96-well microtiter plate by 50 μL. Next, 100 μL of MT-4 cell suspension (2.5×10^4 cells) was dispensed into each well, then 50 μl of HIV-containing supernatant diluted with culture medium described above was added thereto (60 pfu (plaque forming unit)).
Cells were cultured at 37° C. in CO2 incubator for four days, then 30 μL of MTT (3-(4,5-dimethylthiazole-2-yl)-2,5-diphenyltetrazolyum bromide) reagent (5 mg/mL in PBS) was added to all wells followed by incubation for 1 hour. In this step, MTT was reduced to insoluble formazan in living cells. To elute generated formazan, 150 μL of the culture supernatant was removed from all wells, then 150 μL of cell lysis solution (10% Triton X-100 and 0.4% (v/v)-HCl containing isopropanol) was added thereto, followed by shaking with a plate mixer. The formazan was measured with micro plate reader at OD: 560 nm and 690 nm (reference wavelength) and the result was compared with the reference wells. EC50 means the compound concentration at which 50% of cytotoxicity caused by virus infection is inhibited.

The next test concerns HIV. Type of test: cell-based. The settings on record: EC50 in the presence of human serum (25%) versus without human serum, MT-4 cells. Here is the method: To confirm the influence of human serum on anti-HIV activity as necessary, human serum was added and determined EC50 in this condition. Human serum (100 μL/well) was dispensed into each anti-HIV active substance at a designated concentration dispensed 50 μL each in advance into a 96-well microtiter plate, and the plate was incubate at room temperature for 1 hour. To the serum-free plate, only culture medium (100 μL/well) was dispensed into 96-well microtiter plate. MT-4 cells (3×10^4 cells/well) was infected with 3 μL/well of HIV solution diluted to an appropriate concentration (600 pfu/50 μL) by the required number of wells and incubated at 37° C. for 1 hour. The infected cells were centrifuged at 1200 rpm for 5 minutes, the supernatant was discarded, and the infected cells were dispersed into culture medium for the required number of wells at 50 μL/well. Infected cell suspension was dispensed into a 96-well microtiter plate of which anti-HIV active substance and human serum prepared in advance. The cell mixture was mixed with a plate mixer and cultured in a CO2 incubator for 4 days. The EC50 in the presence of human serum was calculated in the same manner as in Test Example 1 and the ratio of EC50 in the presence of human serum and EC50 in the absence of human serum was calculated as the potency shift value. […]

The mark [2] stands for this setting: Human immunodeficiency virus 1, MT4, read-out: EC50 against T125A mutant virus, T125A mutant virus (HIV-1 NL-432 IN gene), MT-4 cells, MTT.
The mark [3] stands for this setting: T125A mutant virus (HIV-1 NL-432 IN gene), MT-4 cells, MTT, read-out: EC50 against T125A mutant virus.
Setting [4] is: read-out: EC50 against T125A mutant virus, T125A mutant virus (HIV-1 NL-432 IN gene), MT-4 cells, MTT.

Usually EC50 stands for the concentration at which the effect is half-maximal. With `Cc1ccc(-c2c([C@H](OC(C)(C)C)C(=O)O)c(Cl)c3c4c2cc(C)n4CCN3c2ccc(C)nn2)cc1` [Compound I-354], in test [1] (setting [2]), the EC50 worked out at 0.0053 µM. The Potency shift value in the test with HIV amounted to 27.
On to `Cc1c([C@H](OC(C)(C)C)C(=O)O)c(C2=CCC(C)(C)CC2)c2cc(C)n3c2c1N(CCN(C)C)CC3` [Compound I-320], for which, in test [1] (setting [2]), the EC50 turned out to be 0.016 µM. Moreover, the Potency shift value with HIV was determined as 2.6.
Take `Cc1c([C@H](OC(C)(C)C)C(=O)O)c(-c2ccc(Cl)cc2)c2cc(C)n3c2c1N(C(=O)C(=O)N(C)C)[C@@H](C)C3` [Compound I-168]: the Potency shift value in the test with HIV stood at 2.9.
As for `Cc1ccc(-c2c([C@H](OC(C)(C)C)C(=O)O)c(C)c3c4c2cc(C)n4CCN3c2ncc(OC3COC3)cn2)cc1` [Compound I-280], the concentration for a half-maximal effect (EC50) in test [1] (setting [2]) amounted to 0.0053 µM. Also, the Potency shift value in the test with HIV is 21.
Taken in the same sequence, the figures for `COc1cncc(N2CCn3c(C)cc4c(-c5ccc(C)cc5)c([C@H](OC(C)(C)C)C(=O)O)c(C)c2c43)n1` [Compound I-274] were 0.014 µM and 16.
For `Cc1ccc(-c2c([C@H](OC(C)(C)C)C(=O)O)c(C)c3c4c2cc(C)n4CCN3CCOC(F)F)cc1` [Compound I-208], in test [1] (setting [3]), the EC50 was 0.024 µM. In the test with HIV, the Potency shift value came to 11.
As to `Cc1c([C@H](OC(C)(C)C)C(=O)O)c(-c2ccc(Cl)cc2)c2cc(C)n3c2c1OC(C)C3` (stereo partly drawn) [Compound I-196], the EC50 in test [1] (setting [4]) was determined as 0.018 µM. In the test with HIV, the Potency shift value worked out at 11.
Consider `CCCO[C@H](C(=O)O)c1c(C)c2c3c(cc(C)n3CCN2c2ncc(OC)cn2)c1-c1ccc(Cl)cc1` [Compound I-297], for which, in the test with HIV, the Potency shift value came out at 7.6.
As for `COc1cnc(N2CCn3c(C)cc4c(-c5ccc(F)cc5)c([C@H](OC(C)(C)C)C(=O)O)c(C)c2c43)nc1` [Compound I-185], the EC50 in test [1] (setting [2]) is 0.0071 µM. Further, the Potency shift value in the test with HIV is listed as 15.
For `COc1cnc(N2CCn3c(C)cc4c(-c5ccc(Cl)cc5)c([C@H](OCCO)C(=O)O)c(C)c2c43)nc1` [Compound I-317], in the test on HIV, the Potency shift value came out at 1.3.
Regarding `COCc1cnc(N2CCn3c(C)cc4c(-c5ccc(Cl)cc5)c([C@H](OC(C)(C)C)C(=O)O)c(C)c2c43)nc1` [Compound I-312], the EC50 in test [1] (setting [2]) amounted to 0.0046 µM. Moreover, the Potency shift value in the test on HIV turned out to be 37.
With `Cc1c([C@H](OC(C)(C)C)C(=O)O)c(-c2ccc(Cl)cc2)c2cc(C)n3c2c1N(C(=O)Nc1ccccc1Br)CC3` [Compound I-232], the 50% effective concentration (EC50) in test [1] (setting [2]) came out at 0.034 µM. In addition, the Potency shift value in the test on HIV is 8.6.
`Cc1c([C@H](OC(C)(C)C)C(=O)O)c(-c2ccc(Cl)cc2)c2cc(C)n3c2c1N(c1ncc(OCOCC[Si](C)(C)C)cn1)CC3` [Compound I-233]: the Potency shift value in the test on HIV worked out at 12.
On the same count and under the same terms, the same measure for `Cc1ccc(-c2c([C@H](OC(C)(C)C)C(=O)O)c(C)c3c4c2cc(C)n4CCN3c2cccc(C(F)(F)F)n2)cc1` [Compound I-285]: 5.1; for `Cc1c([C@H](OC(C)(C)C)C(=O)O)c(-c2ccc(Cl)cc2)c2cc(C)n3c2c1N(C)C1CNCC13` (stereo partly drawn) [Compound I-237]: 2.4.
For `COc1cnc(N2CCn3c(C)cc4c(-c5ccc(Cl)cc5)c([C@H](OCC5CC5)C(=O)O)c(C)c2c43)nc1` [Compound I-298], the Potency shift value in the test with HIV was 11.
On to `Cc1c([C@H](OC(C)(C)C)C(=O)O)c(-c2ccc(F)cc2)c2cc(C)n3c2c1N(CC(=O)N(C)C)CC3` [Compound I-161], for which the Potency shift value with HIV was found to be 1.9.
As for `Cc1c([C@H](OC(C)(C)C)C(=O)O)c(-c2ccc(Cl)cc2)c2cc(C)n3c2c1N(C)C(c1ccccc1)C3` (stereo partly drawn) [Compound I-333], in the test on HIV, the Potency shift value is 6.4.
The same measure, in the same setting: the same measure for `CCCCO[C@H](C(=O)O)c1c(C)c2c3c(cc(C)n3CCN2c2ncc(OC)cn2)c1-c1ccc(Cl)cc1` [Compound I-325]: 5.4; for `CCO[C@H](C(=O)O)c1c(C)c2c3c(cc(C)n3CCN2c2ncc(OC)cn2)c1-c1ccc(Cl)cc1` [Compound I-296]: 2.1.
For `COC(=O)N1CCn2c(C)cc3c(-c4ccc(F)cc4)c([C@H](OC(C)(C)C)C(=O)O)c(C)c1c32` [Compound I-132], the concentration for a half-maximal effect (EC50) in test [1] (setting [2]) was determined as 0.028 µM.
With `Cc1c([C@H](OC(C)(C)C)C(=O)O)c(-c2ccc(Cl)cc2)c2cc(C)n3c2c1N(C)CC3C` (stereo partly drawn) [Compound I-091], the EC50 in test [1] (setting [4]) was 0.002 µM.
In the case of `Cc1c([C@H](OC(C)(C)C)C(=O)O)c(-c2ccc(Cl)cc2)c2cc(C)n3c2c1N(c1ncc(OC(F)F)cn1)CC3` [Compound I-214], the half-maximal effective concentration (EC50) in test [1] (setting [3]) was 0.004 µM.
Regarding `Cc1ccc(-c2c([C@H](OC(C)(C)C)C(=O)O)c(C)c3c4c2cc(C)n4CCN3c2ncc(C3CC3)cn2)cc1` [Compound I-271], in test [1] (setting [2]), the EC50 was 0.0042 µM.
As to `COc1cnc(N2CCn3c(C)c(Cl)c4c(-c5ccc(C)cc5)c([C@H](OC(C)(C)CO)C(=O)O)c(C)c2c43)nc1` [Compound I-324], in test [1] (setting [2]), the EC50 worked out at 0.063 µM.
In the case of `Cc1c([C@H](OC(C)(C)C)C(=O)O)c(-c2ccc(Cl)cc2)c2cc(C)n3c2c1N(S(C)(=O)=O)CC3C` (stereo partly drawn) [Compound I-063], the EC50 in test [1] (setting [4]) stood at 0.0045 µM.
Consider `Cc1c([C@H](OC(C)(C)C)C(=O)O)c(-c2ccc(Cl)cc2)c2cc(C)n3c2c1N(S(=O)(=O)C1CC1)CC3` [Compound I-032], for which the EC50 in test [1] (setting [2]) came out at 0.005 µM.
Turning to `Cc1c([C@H](OC(C)(C)C)C(=O)O)c(-c2ccc(Cl)cc2)c2cc(C)n3c2c1N(c1ccc(F)cn1)CC3` [Compound I-154], the EC50 in test [1] (setting [2]) was found to be 0.013 µM.
For `Cc1ccc(-c2c([C@H](OC(C)(C)C)C(=O)O)c(C)c3c4c2cc(C)n4CCN3c2ncc(Oc3cnccn3)cn2)cc1` [Compound I-341], in test [1] (setting [2]), the EC50 was 0.0041 µM.
On the same count and under the same terms, the same measure for `Cc1c(F)cc(-c2c([C@H](OC(C)(C)C)C(=O)O)c(C)c3c4c2cc(C)n4CCN3C)cc1F` [Compound I-051]: 0.022 µM; for `COCCN1CCn2c(C)cc3c(-c4ccc(F)cc4)c([C@H](OC(C)(C)C)C(=O)O)c(C)c1c32` [Compound I-089]: 0.018 µM.
As to `CCCCCO[C@H](C(=O)O)c1c(C)c2c3c(cc(C)n3CCN2c2ncc(OC)cn2)c1-c1ccc(Cl)cc1` [Compound I-326], the Potency shift value with HIV is reported as 5.8.
Consider `Cc1c([C@H](OC(C)(C)C)C(=O)O)c(-c2ccc(Cl)cc2)c2cc(C)n3c2c1N(Cc1cncnc1)CC3` [Compound I-153], for which the EC50 in test [1] (setting [2]) was 0.011 µM.
For the molecule `Cc1ccc(-c2c([C@H](OC(C)(C)C)C(=O)O)c(C)c3c4c2cc(C)n4CCN3c2ncc(N(C)S(C)(=O)=O)cn2)cc1` [Compound I-201], the EC50 in test [1] (setting [3]) was 0.014 µM.
As to `Cc1c([C@H](OC(C)(C)C)C(=O)O)c(-c2ccc(Cl)cc2)c2c(C)c(C)n3c2c1N(C)CC3` [Compound I-080], the concentration giving a half-maximal response (EC50) in test [1] (setting [2]) came to 0.033 µM.
Same read-out and setting: the figure for `Cc1c([C@H](OC(C)(C)C)C(=O)O)c(-c2ccc(C(F)F)cc2)c2cc(C)n3c2c1N(C)CC3` [Compound I-049] is 0.022 µM; for `Cc1c([C@H](OC(C)(C)C)C(=O)O)c(-c2ccc(Cl)cc2)c2cc(C)n3c2c1N(C)CCC3` [Compound I-079] it is 0.017 µM.
With `Cc1ccc(-c2c([C@H](OC(C)(C)C)C(=O)O)c(C)c3c4c2cc(Br)n4CCN3C)cc1` [Compound I-081], the EC50 in test [1] (setting [2]) came out at 0.0096 µM.
The same measure, in the same setting: the same measure for `[2H]C([2H])([2H])N1c2c(C)c([C@H](OC(C)(C)C)C(=O)O)c(-c3ccc(Cl)cc3)c3cc(C)n(c23)C([2H])([2H])C1([2H])[2H]` [Compound I-103]: 0.0034 µM.
On the same count and under the same terms, the figure for `CCC(=O)N1c2c(C)c([C@H](OC(C)(C)C)C(=O)O)c(-c3ccc(Cl)cc3)c3cc(C)n(c23)C[C@@H]1C` [Compound I-069] is 0.016 µM; for `Cc1ccc(-c2c([C@H](OC(C)(C)C)C(=O)O)c(C)c3c4c2cc(C)n4CCN3c2ncc(Cl)cn2)cc1` [Compound I-263] it is 0.0072 µM.
For `Cc1ccc(-c2c([C@H](OC(C)(C)C)C(=O)O)c(Cl)c3c4c2cc(C)n4CCN3c2ncc(C)cn2)cc1` [Compound I-301], the EC50 in test [1] (setting [2]) was determined as 0.0033 µM.
